Key:
[1] = tested on: white mice, common carotid artery damaged by balloon catheter; experiment: Inner vascular proliferation after balloon dilatation; type: in vivo; details: oral, 5 mg/kg, 14 days after balloon dilatation; H&E staining; FIG. 15
Description: To verify the inhibition of angiostenosis by JC1-40, white mice were administered JC1-40 for […], followed by balloon dilatation and subsequent additional administration of JC1-40 for 14 days. An experimental group was orally administered JC1-40 at a dose of 5 mg/kg (in 0.5% carboxymethyl cellulose, 2 ml/kg) (n=5), and a control was orally administered 0.5% carboxymethlycellulose at a dose of […] (n=5). The balloon dilatation was performed as follows. The cervical portion of each with mouse was incised to expose a common carotid artery, and the internal branch was tied at a site where the common carotid artery branches into the external branch and the internal branch. The external branch was partially incised, and then ballooning was performed three times with a 2F Fogarty balloon catheter to damage blood vessels. Subsequently, the balloon catheter was removed, and the incision site was tied. After balloon dilatation, the white mice were administered the drug for 14 days and then sacrificed to cut the site in artery that included the damaged region. The obtained blood vessels of each of the JC1-40 experimental group and the control were sectioned, the inner vascular layer thereof was subjected to Hematoxylin and Eosin (H&E) staining, and then the effect of JC1-40 on the inhibition of inner vascular proliferation was examined, and the results thereof are illustrated in FIG. 15. […]

[2] = tested on: MCP-1; experiment: MCP-1 in alcoholic fatty liver mice model (ELISA, western blotting); type: in vivo, mice (C57BL/6); details: oral, 10 mg/kg body weight once a day for 2 weeks, alcohol group
Description: Eight-week-old black male laboratory mice (C57BL/6) were divided into: 1) control (n=8); 2) JC1-40-administered control (n=8); 3) alcohol group (n=12); and 4) JC1-40-administered alcohol group (n=12), and fed a Lieber-DeCarli liquid diet (Dyets Inc, Bethlehem, Pa., USA). The Lieber-DeCarli liquid diet in the form of powder was purchased, and then water was added thereto every morning to form a liquid-type feed such that 1 ml of the feed contained 1 kcal. The alcohol group was fed a gradually increasing amount of alcohol with an increment of 0.5% during a 2-week adaptation period, and then was fed a feed containing 5% alcohol for 5 weeks. The feed of the control included maltose dextrin instead of alcohol, and for pair-feeding, the feed included maltose dextrin in an amount providing the same calories as the calories that the amount of the feed fed to the mice of the alcohol group contained. During the 5-week ingestion of 5% alcohol, JC1-40 diluted with 0.5% carboxymethyl cellulose was orally administered once a day at a dose of 10 mg/kg body weight for 2 weeks prior to sacrificing the mice. After the 5-week alcohol feeding period was completed, the mice were fasted for 12 hours, and anesthetized to incise the abdomen, and blood and liver were removed from each mouse.

CNC(=S)NCc1ccc(OCc2ccccc2)cc1 [Compound 40, 1-(4-benzyloxy-benzyl)-3-methyl-thiourea]
proliferation of the inner vascular layer by balloon dilatation [1]: inhibited
level of cytokine MCP-1 (ELISA) ([2]; FIG. 16c): significantly decreased
expression of the MCP-1 protein (western blotting) ([2]; FIG. 16e): decreased to the level of the control

From patent publication US10407388B2, “Thiourea derivatives as activators of RORα and pharmaceutical composition containing same” (SEOUL NATIONAL UNIVERSITY R & DB FOUNDATION, priority 2011, dated 2019)
